Measured values reported in patent US10544132B2, “Isoindolinone inhibitors of the MDM2-p53 interaction having anticancer activity” (ASTEX THERAPEUTICS LIMITED, priority 2015, dated 2020).

Columns and labels:
MDM2-p53 interaction = MDM2-p53 interaction (Homo sapiens (Human), UniProt Q00987); test: MDM2-p53 interaction 96-well plate binding assay (ELISA)
SJSA-1 cells = test: SJSA-1 growth inhibition, sulphorhodamine B (SRB) method (Protocol A); conditions: Homo sapiens, SJSA-1, 72 h, read-out: SJSA-1 IC50 (μM) (Protocol A)
SN40R2 cells = test: SN40R2 growth inhibition, sulphorhodamine B (SRB) method (Protocol A); conditions: 72 h, read-out: SN40R2 IC50 (μM) (Protocol A)

Sequence of MDM2-p53 interaction (Q00987 whole entry): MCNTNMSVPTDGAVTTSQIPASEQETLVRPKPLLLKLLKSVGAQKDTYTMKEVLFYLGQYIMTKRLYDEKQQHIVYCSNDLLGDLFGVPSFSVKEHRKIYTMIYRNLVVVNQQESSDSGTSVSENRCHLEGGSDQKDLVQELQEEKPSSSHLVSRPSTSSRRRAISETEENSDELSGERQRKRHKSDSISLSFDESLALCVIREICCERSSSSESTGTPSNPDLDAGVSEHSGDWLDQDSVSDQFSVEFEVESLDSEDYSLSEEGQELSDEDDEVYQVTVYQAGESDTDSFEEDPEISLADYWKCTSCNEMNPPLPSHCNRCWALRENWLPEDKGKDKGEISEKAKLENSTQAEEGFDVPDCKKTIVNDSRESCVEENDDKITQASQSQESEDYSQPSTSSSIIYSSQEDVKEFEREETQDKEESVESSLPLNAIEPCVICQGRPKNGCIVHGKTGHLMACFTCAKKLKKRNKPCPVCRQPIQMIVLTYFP

| IC50 (MDM2-p53 interaction) [µM] | IC50 (SJSA-1 cells) [µM] | SMILES | IC50 (SN40R2 cells) [µM] |
| --- | --- | --- | --- |
| 0.0019 | 0.078 | [2H]C([2H])(O)C1(C([2H])([2H])O[C@]2(c3ccc(Cl)cc3)c3ccc(C(C)(C)O)cc3C(=O)N2Cc2ccc(Cl)cc2S(C)(=O)=O)CC1 [Example 36, (3R)-2-[(4-chloro-2-methanesulfonylphenyl)methyl]-3-(4-chlorophenyl)-3-({1-[hydroxy(^2H2)methyl]cyclopropyl}(^2H2)methoxy)-6-(2-hydroxypropan-2-yl)-2,3-dihydro-1H-isoindol-1-one] | 17 |
|  |  | CC(C)(O)c1cc(F)c2c(c1)C(=O)N(Cc1ccc(Cl)cc1)[C@@]2(OCC1(CO)CC1)c1ccc(Cl)cc1 [Example 2, (3R)-3-(4-chlorophenyl)-2-[(4-chlorophenyl)methyl]-4-fluoro-3-{[1-(hydroxymethyl)cyclopropyl]methoxy}-6-(2-hydroxypropan-2-yl)-2,3-dihydro-1H-isoindol-1-one] | 17 |
